Measured values from US6268391A, “Benzylidene-1,3-dihydro-indol-2-one derivatives a receptor tyrosine kinase inhibitors, particularly of Raf kinases” (Glaxo Wellcome Inc., priority 1997, dated 2001).
Like-named read-outs stand apart in the source and are kept apart here.

Legend:
[1] = system: SW620 (human colon carcinoma cell line); assay: Cell Based Efficacy (MTT Assay), SW620; details: SW-620, 72 hours with compound, 50% inhibitory concentration
Protocol: (§1) The potency of compounds of the invention are tested for their ability to inhibit cell proliferation and cell viability. The metabolic conversion of 3-(4,5-dimethylthiazol-2-yl)-2,5-diphenyltetrazolium bromide (MTT, Sigma #M2128) to a reduced form is a commonly used measure of cellular viability. Following is the procedure:
(§2) Cells are maintained in 75 cm^2 tissue culture flasks until ready for use. The cells are grown and plated for the assay in Dulbecco's modified Eagle's media containing 10% fetal bovine serum. For example, the following cell lines can be used: a) human foreskin fibroblasts (HFF), b) HT29 (human colon carcinoma cell line), c) MDA-MB-468 (human breast carcinoma cell line), d) RKO (human colon adenocarcinoma cell line), e) SW620 (human colon carcinoma cell line), f) A549 (human lung carcinoma cell line), and g) MIA PACA (human pancreatic carcinoma cell line). Cells are maintained at 37° C. in 10% CO2, 90% humidified air. Cells are plated in 96-well tissue culture plates at the densities listed below. 100 μL of cell suspension is added to each well of the 96-well plate except the top row of the plate which contains no cells and serves as a reference for the spectrophotometer. […]
(§3) Cells are incubated overnight in Dulbecco's modified Eagle's media containing 10% fetal bovine serum at 37° C. in 10% CO2, 90% humidified air prior to dosing. Cells are dosed in 10 sequential 3-fold dilutions starting at 30 uM depending upon the solubility of the compound. Compounds with solubilities of less than 30 uM are dosed at the highest soluble concentration. Stock solutions of compounds are made in 100% dimethyl sulfoxide (DMSO). Stock solutions are diluted in Dulbecco's modified Eagle's media containing 100 ug/mL gentamicin and 0.3 to 0.6% DMSO at the twice the highest concentration to be placed on the cells. If compounds have been dissolved in DMSO the final concentration of DMSO on the cells is kept below 0.3%. 3-fold serial dilutions are performed on each compound to prepare 10 concentrations of the compound for dosing. 100 μL of diluted compound is added to the 100 μL of media currently on the dish. For each concentration of compound, 2-4 replicate wells are prepared.
(§4) Cells are returned to incubator and allowed to proliferate in the presence of compound for 72 hours before addition of MTT. MTT is prepared in phosphate buffered saline (Irvine Scientific #9240) at a concentration of 2mg/mL. 50 μL per well of MTT solution is added to the 200 μL of media to yield a final concentration of 0.4 mg/mL and plates are returned to the incubator for 4 hours. After 4 hours incubation the media, compound and MTT mixture is aspirated from the plates and 100 μL of 100% DMSO is added to each well in addition to 25 μL of Sorenson's Buffer (0.1M glycine, 0.1M NaCl, pH 10.5). Quantitation of metabolic reduction of MTT in each plate is performed by reading optical density at 570 nm wavelength on a Molecular Devices UVmax microplate reader. Growth inhibition curves and 50% inhibitory concentrations are determined using Microsoft Excel.
(§5) Table 4 illustrates the inhibitory activity of compounds of the present invention against a representative kinase (raf) and the cytotoxicity of compounds of the present invention against a broad range of human tumor cell lines.

PC-3 (prostate) = assay: Cell Based Efficacy (MTT Assay), PC-3; details: Homo sapiens; 72 hours with compound; 50% inhibitory concentration
Protocol: as §1
(§6) Cells are maintained in 75 cm^2 tissue culture flasks until ready for use. The cells are grown and plated for the assay in Dulbecco's modified Eagle's media containing 10% fetal bovine serum. For example, the following cell lines can be used: a) human foreskin fibroblasts (HFF), b) HT29 (human colon carcinoma cell line), c) MDA-MB-468 (human breast carcinoma cell line), d) RKO (human colon adenocarcinoma cell line), e) SW620 (human colon carcinoma cell line), f) A549 (human lung carcinoma cell line), and g) MIA PACA (human pancreatic carcinoma cell line). Cells are maintained at 37° C. in 10% CO2, 90% humidified air. Cells are plated in 96-well tissue culture plates at the densities listed below. 100 μL of cell suspension is added to each well of the 96-well plate except the top row of the plate which contains no cells and serves as a reference for the spectrophotometer.
as §3, §4, §5

[2] = system: MIA PACA (human pancreatic carcinoma cell line); assay: Cell Based Efficacy (MTT Assay), MIA PACA; details: MIA PaCa-2, 72 hours with compound, 50% inhibitory concentration
Protocol: as §1, §6
MIA PACA 3000 cells/well
as §3, §4, §5

Human cRaf1 = target: T1, Human cRaf1 (Homo sapiens, UniProt P04049); assay: Raf kinase assay (cRaf1 assay / Raf/MEK cascade assay); assay type: biochemical
T1 construct: poly-histidine (C); made in house
T1 sequence (P04049 whole entry): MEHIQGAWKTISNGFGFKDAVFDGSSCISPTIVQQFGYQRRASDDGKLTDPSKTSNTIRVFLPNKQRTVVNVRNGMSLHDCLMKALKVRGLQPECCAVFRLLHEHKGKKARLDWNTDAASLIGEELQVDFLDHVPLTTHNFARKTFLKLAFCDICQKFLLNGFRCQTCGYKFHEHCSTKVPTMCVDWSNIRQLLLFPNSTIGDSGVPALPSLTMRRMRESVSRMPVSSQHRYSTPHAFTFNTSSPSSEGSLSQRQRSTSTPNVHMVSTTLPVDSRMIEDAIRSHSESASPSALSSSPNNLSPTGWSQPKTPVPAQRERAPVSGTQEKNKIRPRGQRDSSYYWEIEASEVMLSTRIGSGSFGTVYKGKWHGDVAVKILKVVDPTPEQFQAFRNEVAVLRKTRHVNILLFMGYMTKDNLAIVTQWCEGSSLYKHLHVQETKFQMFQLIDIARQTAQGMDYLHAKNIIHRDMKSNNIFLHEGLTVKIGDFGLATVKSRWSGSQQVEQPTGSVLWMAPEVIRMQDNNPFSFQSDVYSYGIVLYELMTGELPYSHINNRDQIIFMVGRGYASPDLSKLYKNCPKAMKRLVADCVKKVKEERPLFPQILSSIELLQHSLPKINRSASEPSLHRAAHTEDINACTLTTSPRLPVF

[3] = system: MDA-MB-468 (human breast carcinoma cell line); assay: Cell Based Efficacy (MTT Assay), MDA-MB-468; details: 72 hours with compound, 50% inhibitory concentration
Protocol: as §1, §2, §3, §4, §5

[4] = system: HT29 (human colon carcinoma cell line); assay: Cell Based Efficacy (MTT Assay), HT29; details: HT-29, 72 hours with compound, 50% inhibitory concentration
Protocol: as §1, §6, §3, §4, §5

HT-29 xenograft = assay: Anti-tumor study in mice, HT-29 xenograft; assay type: in vivo
Protocol: Mice are acquired from Taconic Farms and are maintained in Microisolator cages at 72±2° F. with a 12 hour light/dark cycle. Animals are housed at 4 mice per cage (28×17×12 cm ) and are given food and water ad libitum. Animals are numbered through the use of an ear punch or tail tattoo. All animal handling is done in a laminar flow hood.
Solid tumors are measured by caliper measurement through the skin. Caliper measurements are typically made twice weekly. Tumor weight is calculated using the equation (length×width^2 /2)=mg tumor weight.
Compounds are prepared in a vehicle consisting of DMSO, Cremophore and PBS.
Drug therapy begins when the average tumor size is approximately 40-50 mg, which usually is day 7 after implant. The dose schedule consists of one dose/day for 5 consecutive days. Drugs are administered at 3 or 4 dose-levels based upon the previously-determined maximally tolerated dose. A vehicle control group is also included. Drugs may be administered by either i.v., i.p., s.c., or oral (p.o.) transdermal routes or other alternative routes. Drugs may be administered via tail vein infusion. The injection volume administered for each mouse is usually 0.01-0.02 mL/g of body weight. In the case of i.v. injections and tail vein infusion animals are restrained in a Broome restrainer during handling. Animal are fasted overnight prior to p.o. dosing. […]

[5] = Table 3, read-out: Raf Kinase activity

IC50 [1] [µM] | IC50 (PC-3 (prostate)) [µM] | IC50 [2] [µM] | IC50 (Human cRaf1; [5]) [µM] | IC50 (Human cRaf1; Table 4, read-out: Raf) [µM] | IC50 [3] [µM] | IC50 [4] [µM] | Structure (SMILES) | Tumor Response % Inhibition @ mg/kg (HT-29 xenograft; 5 mg/kg) [%] | Tumor Response % Inhibition @ mg/kg (HT-29 xenograft; 25 mg/kg) [%]
5 to 50 | 5 to 50 | 5 to 50 | < 1 | < 0.5 | 5 to 50 | 5 to 50 | N#Cc1ccc2c(c1)C(=Cc1cc(Br)c(O)c(Br)c1)C(=O)N2 [Example 1, 3-(3,5-Dibromo-4-hydroxy-benzylidine)-2-oxo-2,3-dihydro-1H-indole-5-carbonitrile] |  | 
5 to 50 | 5 to 50 | 5 to 50 | < 1 | < 0.5 | 5 to 50 | 5 to 50 | CCOc1cc(C=C2C(=O)Nc3ccc(C(=O)c4ccccc4)cc32)cc(Br)c1O [Example 8, 5-Benzoyl-3-(3-bromo-5-ethoxy-4-hydroxy-benzylidene)-1,3-dihydro-indol-2-one] |  | 
5 to 50 | 5 to 50 | 5 to 50 | 1 to 10 | 0.5 to 5 | 5 to 50 | 5 to 50 | NCc1ccc2c(c1)C(=Cc1cc(Br)c(O)c(Br)c1)C(=O)N2 [Example 25, 5-Aminomethyl-3-(3,5-dibromo-4-hydroxy-benzylidene)-1,3-dihydro-indol-2-one] |  | 
0.5 to 5 | 0.5 to 5 | 0.5 to 5 | < 1 | < 0.5 | 0.5 to 5 | 0.5 to 5 | O=C1Nc2ccc3ncccc3c2C1=Cc1cc(Br)c(O)c(Br)c1 [Example 119, 1-(3,5-Dibromo-4-hydroxy-benzylidene)-1,3-dihydro-pyrrolo[3,2-f]quinolin-2-one] |  | 
0.5 to 5 |  | 5 to 50 | < 1 | < 0.5 | 0.5 to 5 | 0.5 to 5 | O=C1Nc2ccc3ncsc3c2C1=Cc1cc(Br)c(O)c(Br)c1 [Example 121, 8-(3,5-Dibromo-4-hydroxy-benzylidine)-6,8-dihydro-1-thia-3,6-diaza-as-indacen-7-one] |  | 
5 to 50 | 5 to 50 | 5 to 50 | < 1 | < 0.5 | 0.5 to 5 | 0.5 to 5 | O=C1Nc2cc(Br)ccc2C1=Cc1cc(Cl)c(O)c(Cl)c1 [Example 133, 6-Bromo-3-(3,5-dichloro-4-hydroxy-benzylidene)-1,3-dihydro-indol-2-one] |  | 
0.5 to 5 |  |  | < 1 | < 0.5 | 0.5 to 5 | 0.5 to 5 | Cn1nnc(-c2ccc3c(c2)C(=Cc2cc(Br)c(O)c(Br)c2)C(=O)N3)n1 [Example 143, 3-(3,5-Dibromo-4-hydroxy-benzylidene)-5-(2-methyl-2H-tetrazol-5-yl)-1,3-dihydro-indol-2-one] |  | 
 |  |  | < 1 |  |  |  | NS(=O)(=O)c1ccc(-c2ccc3c(c2)C(=Cc2cc(Br)c(O)c(Br)c2)C(=O)N3)cc1 [Example 175, 4-3-[(3,5-Dibromo-4-hydroxyphenyl)methylidene]-2-oxo 2,3-dihydro-1H-indol-5-ylbenzenesulfonamide] |  | 
 |  |  | < 1 |  |  |  | C=Cc1ccc2c(c1)NC(=O)C2=Cc1cc(Br)c(O)c(Br)c1 [Example 176, 3-[(3,5-Dibromo-4-hydroxyphenyl)methylidene]-6-vinyl-1,3-dihydro-2H-indol-2-one] |  | 
 |  |  | < 1 |  |  |  | COC(=O)c1sccc1-c1ccc2c(c1)C(=Cc1cc(Br)c(O)c(Br)c1)C(=O)N2 [Example 177, Methyl 3-3-[(3,5 dibromo-4-hydroxyphenyl)methylidene]-2-oxo-2,3-dihydro-1H-indol-5-yl-2-thiophenecarboxylate] |  | 
 |  |  | < 1 |  |  |  | N#Cc1ccccc1-c1ccc2c(c1)C(=Cc1cc(Br)c(O)c(Br)c1)C(=O)N2 [Example 178, 2-3-[(3,5 Dibromo-4-hydroxyphenyl)methylidene]-2-oxo-2,3-dihydro-1H-indol-5-ylbenzonitrile] |  | 
 |  |  | < 1 |  |  |  | N#Cc1ccc2c(c1)NC(=O)C2=Cc1cc(Br)c(O)c(Br)c1 [Example 179, 3-[(3,5-Dibromo-4-hydroxyphenyl)methylidene]-2-oxo-6-indolinecarbonitrile] |  | 
 |  |  | < 1 |  |  |  | CN(C)CCCNc1nc(-c2ccc3c(c2)C(=Cc2cc(Br)c(O)c(Br)c2)C(=O)N3)cs1 [Example 180, 3-[(3,5-Dibromo-4-hydroxyphenyl)methylidene]-5-(2-[3-(dimethylamino)propyl]amino-1,3-thiazol-4-yl)-1,3-dihydro-2H-indol-2-one] |  | 
 |  |  | < 1 |  |  |  | O=C1Nc2ccc(C(=O)NCc3ccncc3)cc2C1=Cc1cc(Br)c(O)c(Br)c1 [Example 181, 3-[(3,5-dibromo-4-hydroxyphenyl)methylidene]-2-oxo-N-(4-pyridinylmethyl)-1,2-dihydro-3H-indole-5-carboxamide] |  | 

Structure (SMILES) | IC50 [1] [µM] | IC50 (PC-3 (prostate)) [µM] | IC50 [2] [µM] | IC50 (Human cRaf1; [5]) [µM] | IC50 (Human cRaf1; Table 4, read-out: Raf) [µM] | IC50 [3] [µM] | IC50 [4] [µM] | Tumor Response % Inhibition @ mg/kg (HT-29 xenograft; 5 mg/kg) [%] | Tumor Response % Inhibition @ mg/kg (HT-29 xenograft; 25 mg/kg) [%]
Cc1nc(-c2ccc3c(c2)C(=Cc2cc(Br)c(O)c(Br)c2)C(=O)N3)cs1 [Example 2, 3-(3,5-Dibromo-4-hydroxy-benzylidene)-5-(2-methyl-thiazol-4-yl)-1,3-dihydro-indol-2-one] | 0.5 to 5 | 5 to 50 | 0.5 to 5 | < 1 | < 0.5 | 0.5 to 5 | 0.5 to 5 | 50 | 
O=C1Nc2ccc(C(=O)CCl)cc2C1=Cc1cc(Br)c(O)c(Br)c1 [Example 84, 5-(2-Chloro-acetyl)-3-(3,5-dibromo-4-hydroxy-benzylidene)-1,3-dihydro-indol-2-one] |  |  |  | < 1 |  |  |  |  | 50
Cc1nc(-c2ccc3c(c2)C(=Cc2cc([N+](=O)[O-])c(O)c([N+](=O)[O-])c2)C(=O)N3)cs1 [Example 130, 3-(3,5-Dinitro-4-hydroxy-benzylidene)-5-(2-methyl-thiazol-4-yl)-1,3-dihydro-indol-2-one] | 5 to 50 | > 50 | 5 to 50 | < 1 | < 0.5 | 5 to 50 | > 50 |  | 
